Holding throughout (format): cell-based
Assay [1] has as its system B. catarrhalis W-0500. Kind of assay: MIC, agar plate dilution method. The conditions noted are these: Moraxella catarrhalis, W0500, 20 h, read-out: Antimicrobial activity (MIC), 37° C., 20 hours, SDA with 5% horse blood. As for the experimental part:
(§1) The effect of the first aspect of the present invention resides in the creation of a novel and useful 16-membered macrolide derivative. Antimicrobial activities of the compounds of the present invention were determined by measuring minimum inhibitory concentration (MIC). Minimum inhibitory concentration was determined by the agar plate dilution method in the following manner.
(§2) Test strains were subjected to seed culture using Sensitivity test broth (STB, Nissui Pharmaceutical) except that the strains belonging to the genus Streptococcus, Branhamella and Haemophilus were cultured on blood agar plate. A 5 μl portion of cell suspension of the test strains having about 10^6 CFU/ml was inoculated into Sensitivity disk agar (SDA, Nissui Pharmaceutical) supplemented with 5% horse blood and incubated at 37° C. for 20 hours. Then, MIC was measured. […] Antimicrobial activities in vitro of the compounds (1) and (2) are shown in Table 1, and those of the compounds (3) and (4) in Table 3.

In assay [2] the test system is S. pyogenes Cook. Put plainly: MIC, agar plate dilution method. The note with it: Streptococcus pyogenes; 37° C., 20 hours, SDA with 5% horse blood; read-out: Antimicrobial activity (MIC). As for the experimental part:
as §1, §2

Assay [3] relates to S. aureus M126. Kind of assay: MIC, agar plate dilution method. The conditions noted are these: Staphylococcus aureus, 37° C., 20 hours, SDA with 5% horse blood, read-out: Antimicrobial activity (MIC). As to the method:
as §1, §2

Assay [4] has as its system S. epidermidis ATCC14990. Kind of assay: MIC, agar plate dilution method. The note with it: Staphylococcus epidermidis, ATCC14990, 20 h, read-out: Antimicrobial activity (MIC), 37° C., 20 hours, SDA with 5% horse blood. As for the experimental part: as §1, §2
In assay [5] the test system is K. pneumoniae PCI602. Put plainly: MIC, agar plate dilution method. The note with it: 37° C., SDA with 5% horse blood; for MIC: Klebsiella pneumoniae, PCI602, 20 h, read-out: Antimicrobial activity (MIC). As to the method: as §1, §2
Assay [6] concerns E. coli NIHJ JC-2. Put plainly: MIC, agar plate dilution method. The note with it: 37° C., SDA with 5% horse blood; for MIC: Escherichia coli, NIHJJC2, 20 h, read-out: Antimicrobial activity (MIC). As for the experimental part:
as §1, §2

Assay [7] has as its system E. faecalis W-73. Kind of assay: MIC, agar plate dilution method. The conditions noted are these: Enterococcus faecalis, W73, 20 h, read-out: Antimicrobial activity (MIC). As for the experimental part: as §1, §2
Assay [8] concerns S. aureus MS15009/pMS99. Put plainly: MIC, agar plate dilution method. The conditions noted are these: Staphylococcus aureus, MS15009/PMS99, 20 h, read-out: Antimicrobial activity (MIC). As to the method:
as §1, §2

Assay [9] has as its system S. pneumoniae Type 1. Put plainly: MIC, agar plate dilution method. The conditions noted are these: Streptococcus pneumoniae. As for the experimental part:
as §1, §2

Assay [10] has as its system S. pneumoniae IP692. Put plainly: MIC, agar plate dilution method. The conditions noted are these: Streptococcus pneumoniae, IP692, 20 h. As to the method:
as §1, §2

Assay [11] has as its system B. catarrhalis W-0506. Put plainly: MIC, agar plate dilution method. The note with it: for MIC: Moraxella catarrhalis, W0506, 20 h, read-out: Antimicrobial activity (MIC), 37° C., 20 hours, SDA with 5% horse blood. As to the method:
as §1, §2

Assay [12] deals with H. influenzae 9334. Kind of assay: MIC, agar plate dilution method. As to the method: as §1, §2
In assay [13] the test system is M. luteus ATCC9341. Kind of assay: MIC, agar plate dilution method. The conditions noted are these: Micrococcus luteus, ATCC9341; 37° C., 20 hours, SDA with 5% horse blood; read-out: Antimicrobial activity (MIC). As to the method:
as §1, §2

The test system of assay [14] is S. aureus MS15027. Put plainly: MIC, agar plate dilution method. The conditions noted are these: Staphylococcus aureus. As to the method: as §1, §2
The subject of assay [15] is S. aureus 209P JC-1. Put plainly: MIC, agar plate dilution method. The conditions noted are these: for MIC: Staphylococcus aureus, 209P, 20 h. As to the method:
as §1, §2

Assay [16] concerns H. influenzae Type b. Put plainly: MIC, agar plate dilution method. The conditions noted are these: Haemophilus influenzae. As for the experimental part: as §1, §2
For assay [17], the system named is S. aureus MS15026. Put plainly: MIC, agar plate dilution method. The conditions noted are these: Staphylococcus aureus, 37° C., 20 hours, SDA with 5% horse blood, read-out: Antimicrobial activity (MIC). As for the experimental part: as §1, §2
Assay [18] deals with S. aureus MS15009/pMS98. Put plainly: MIC, agar plate dilution method. The note with it: Staphylococcus aureus, MS15009/PMS98, 20 h, read-out: Antimicrobial activity (MIC), 37° C., 20 hours, SDA with 5% horse blood. As for the experimental part:
as §1, §2

For assay [19], the system named is B. catarrhalis W-0400. Kind of assay: MIC, agar plate dilution method. The note with it: Moraxella catarrhalis, W0400, 20 h, read-out: Antimicrobial activity (MIC). As for the experimental part: as §1, §2
Assay [20] has as its system test strains. Put plainly: Antimicrobial activity in vitro, test strains overall. As for the experimental part:
as §1, §2

Assay [21] concerns S. aureus M133. Put plainly: MIC, agar plate dilution method. The note with it: Staphylococcus aureus, M133, 20 h, read-out: Antimicrobial activity (MIC), 37° C., 20 hours, SDA with 5% horse blood. As to the method: as §1, §2
Assay [22] relates to clinically important Gram-positive bacteria. Kind of assay: Antimicrobial activity / growth inhibition. As to the method: as §1, §2
Assay [23] has as its system Streptococcus pneumoniae. Kind of assay: Antimicrobial activity in vitro. The conditions noted are these: compared with MDM and LM-A7. As for the experimental part: as §1, §2
Assay [24] has as its system Branhamella catarrhalis. Put plainly: Antimicrobial activity in vitro. The note with it: vs compound (5). As to the method:
as §1, §2

Where [25] appears, read: TYPE1, 37° C., 20 hours, SDA with 5% horse blood, read-out: Antimicrobial activity (MIC).
Where [26] appears, read: 37° C., 20 hours, SDA with 5% horse blood, read-out: Antimicrobial activity (MIC).
Setting [27] is: 37° C., 20 hours, SDA with 5% horse blood.
The mark [28] stands for this setting: MS15027, 20 h, read-out: Antimicrobial activity (MIC), 37° C., 20 hours, SDA with 5% horse blood.
The mark [29] stands for this setting: 20 h, read-out: Antimicrobial activity (MIC), 37° C., 20 hours, SDA with 5% horse blood.
Where [30] appears, read: read-out: Antimicrobial activity (MIC), 37° C., 20 hours, SDA with 5% horse blood.

Converted amounts (≈) assume the structure as drawn. Like-named read-outs stand apart in the source and are kept apart here.

Regarding `CC[C@H]1OC(=O)[C@H](C)[C@@H](O[C@H]2C[C@@](C)(OC)[C@@H](O)[C@H](C)O2)[C@H](C)[C@@H](O[C@@H]2O[C@H](C)C[C@H](N(C)C)[C@H]2O)[C@](C)(OC)C[C@@H](C)C(=O)[C@H](C)[C@@H](O)[C@]1(C)O` [CAM, clarithromycin, reference compound], the MIC in assay [1] was 0.2 µg/mL (≈ 0.267 µM); in assay [2], under 0.025 µg/mL; in [3], over 100 µg/mL; in [4] it was 0.1 µg/mL (≈ 0.134 µM); in assay [5], 100 µg/mL (≈ 134 µM); in [6], 100 µg/mL (≈ 134 µM). The MIC in assay [7] was 0.78 µg/mL (≈ 1.04 µM); in assay [8], over 100 µg/mL; in [9] (setting [25]) it was under 0.025 µg/mL; in assay [10] (setting [26]) it was under 0.025 µg/mL; in assay [11], 0.2 µg/mL (≈ 0.267 µM); in assay [12] (Haemophilus influenzae, 9334, 37° C., 20 hours, SDA with 5% horse blood, read-out: Antimicrobial activity (MIC)) it was 1.56 µg/mL (≈ 2.09 µM). Also, the MIC in assay [13] is under 0.025 µg/mL; in assay [14] (setting [28]) it was over 100 µg/mL; in assay [14] (MS15027, 37° C., 20 hours, SDA with 5% horse blood, read-out: Antimicrobial activity (MIC)), 1.56 µg/mL (≈ 2.09 µM); in [15] (setting [26]), 0.05 µg/mL (≈ 0.0668 µM); in [16] (setting [29]), 6.25 µg/mL (≈ 8.36 µM); in assay [17], over 100 µg/mL. For the same compound, the results for the MIC in assay [18] and in assay [19] were over 100 µg/mL and 0.1 µg/mL (≈ 0.134 µM), respectively. Moreover, the “Antimicrobial activity (MIC)” value in assay [5] (20 hours) turned out to be 50 µg/mL; in [6] (20 hours) it was 50 µg/mL; in [11] (setting [27]), 0.10 µg/mL; in assay [15] (setting [27]) it was 0.10 µg/mL.
Take `CCC(=O)O[C@@H]1CC(=O)O[C@H](C)C/C=C/C=C/[C@H](O)[C@H](C)C[C@H](CC=O)[C@H](O[C@@H]2O[C@H](C)[C@@H](O[C@H]3C[C@@](C)(OC)[C@@H](OC(=O)CC)[C@H](C)O3)[C@H](N(C)C)[C@H]2O)[C@H]1OC` [(1), 3"-O-methylmidecamycin A1]: in assay [20] (against most of test strains), the “antimicrobial activities in vitro compared with corresponding compounds having free 3"-hydroxyl (MDM, LM-A7)” value is on record as “twice as high”. Also, the MIC in assay [1] is 0.78 µg/mL (≈ 0.942 µM); in assay [3], over 100 µg/mL; in assay [4] it was 0.78 µg/mL (≈ 0.942 µM); in [5] it was over 100 µg/mL; in [7] (setting [27]), 1.56 µg/mL (≈ 1.88 µM); in assay [8], over 100 µg/mL. For the same compound, the MIC is 0.1 µg/mL (≈ 0.121 µM) in [9] (TYPE1, 20 h, read-out: Antimicrobial activity (MIC), 37° C., 20 hours, SDA with 5% horse blood); 0.1 µg/mL (≈ 0.121 µM) in assay [10] (setting [30]); 0.78 µg/mL (≈ 0.942 µM) in [11]; 0.39 µg/mL (≈ 0.471 µM) in [21]; 0.05 µg/mL (≈ 0.0604 µM) in assay [13]; 0.39 µg/mL (≈ 0.471 µM) in [14] (setting [28]). Moreover, the MIC in assay [15] (setting [30]) was 0.2 µg/mL (≈ 0.242 µM); in assay [16] (setting [29]), 12.5 µg/mL (≈ 15.1 µM); in assay [17], over 100 µg/mL; in [18] it was 0.2 µg/mL (≈ 0.242 µM). Further, the “antimicrobial activities (in words)” value in [22] was “strong antimicrobial activities”. Besides, in assay [23], the “antimicrobial activity against Streptococcus pneumoniae” value is “considerably improved antimicrobial activity”.
On to `CO[C@@H]1[C@@H](O[C@@H]2O[C@H](C)[C@@H](O[C@H]3C[C@@](C)(OC)[C@@H](OC(=O)CC(C)C)[C@H](C)O3)[C@H](N(C)C)[C@H]2O)[C@@H](CC=O)C[C@@H](C)[C@@H](OC(C)=O)/C=C/C=C/C[C@@H](C)OC(=O)C[C@H]1OC(C)=O` [(11), 9-O-acetyl-3"-O-methyljosamycin], for which, in assay [20] (vs miokamycin (MOM)), the “antimicrobial activities in vitro compared with miokamycin” value is listed as “comparable to or higher”. In addition, the “antimicrobial activity against Branhamella catarrhalis compared with compound (5)” value in assay [24] was “slightly superior to that of the compound (5)”.
Take `CCCC(=O)O[C@H]1[C@H](C)O[C@@H](O[C@H]2[C@H](N(C)C)[C@@H](O)[C@H](O[C@H]3[C@@H](CC=O)C[C@@H](C)[C@@H](O)/C=C/C=C/C[C@@H](C)OC(=O)C[C@@H](O)[C@@H]3OC)O[C@@H]2C)C[C@@]1(C)OC` [(33), 3"-O-methylleucomycin A5]: the “antimicrobial activities compared with clarithromycin” value in assay [20] (vs clarithromycin) is listed as “completely comparable to those of clarithromycin”. Also, the “antimicrobial activities in comparison with compound (2)” value in [20] (vs compound (2)) was “generally improved antimicrobial activities”. In assay [20] (vs rokitamycin), the “antimicrobial activities in comparison with rokitamycin” value is listed as “markedly excellent antimicrobial activities in vitro”. For the same compound, the MIC is under 0.025 µg/mL in assay [2]; over 100 µg/mL in assay [3]; 0.2 µg/mL (≈ 0.254 µM) in assay [4]; 100 µg/mL (≈ 127 µM) in [5]; over 100 µg/mL in [6]; 0.78 µg/mL (≈ 0.992 µM) in assay [7]. Further, the MIC in [8] is over 100 µg/mL; in [9] (setting [25]), under 0.025 µg/mL; in assay [10] (setting [26]), under 0.025 µg/mL; in assay [11], 0.2 µg/mL (≈ 0.254 µM); in [12] (Haemophilus influenzae, 9334, 20 h, read-out: Antimicrobial activity (MIC), 37° C., 20 hours, SDA with 5% horse blood), 0.2 µg/mL (≈ 0.254 µM); in [21], 0.2 µg/mL (≈ 0.254 µM). The MIC is under 0.025 µg/mL in assay [13]; 0.2 µg/mL (≈ 0.254 µM) in assay [14] (setting [28]); 0.05 µg/mL (≈ 0.0636 µM) in assay [15] (setting [26]); 1.56 µg/mL (≈ 1.98 µM) in assay [16] (setting [26]); over 100 µg/mL in assay [17]; 0.1 µg/mL (≈ 0.127 µM) in assay [18]. Also, in [19], the MIC was 0.1 µg/mL (≈ 0.127 µM).

Source of the values: patent US5602106A, “16-membered macrolide derivatives” (priority 1993, dated 1997).
